The values below come from patent US5354778A, “Antitumor compositions and methods of treatment” (priority 1993, dated 1994).

SMILES strings stand for the structures. In brackets after ≈: the same amount, converted by molar mass.

The subject of one series is 6C3HED lymphosarcoma. The series can be described thus: in vivo activity against 6C3HED lymphosarcoma (Gardner lymphosarcoma, GLS) transplanted in C3H mice, oral. Conditions: for Toxic/Total (number of mice which died during test period/total number of mice in test group): 6C3HED tumor-bearing C3H mice; for inhibition in vivo at 150 mg/kg / inhibition in vivo at 300 mg/kg: Mus musculus, 6C3HED, po, 192 h, read-out: % Tumor Inhibition; for % Tumor Inhibition: 6C3HED tumor, C3H mice. The procedure:
The compounds were tested in C3H mice bearing a 6C3HED lymphosarcoma, also known as the Gardner lymphosarcoma (GLS). The 6C3HED lymphosarcoma was obtained from the Division of Cancer Treatment, National Cancer Institute, Tumor Bank, maintained at E. G. and G. Mason Research (Worcester, Mass.). First passage tumor was stored in liquid nitrogen using standard techniques. The transplanted tumor was reestablished from the Tumor Bank every six months or as needed. The tumor was maintained by serial passage twice weekly in C3H mice.
In the procedure the tumor was removed from passage animals and minced into 1- to 3-mm square fragments using sterile techniques. Tumor pieces were checked for sterility using both Antibiotic Medium 1 and Brain Heart Infusion (Difco, Detroit, Mich.). Recipient mice were shaved and tumor pieces were implanted subcutaneously in the auxiliary region by trocar. Drug therapy on the appropriate schedule was initiated on the day after tumor implant. The compound being tested was mixed with 2.5 weight % of a polyoxyethylated oil known as "Emulphor EL-620" surfactant from GAF Chemicals Corporation (1:40 dilution of Empulphor in saline). All animals were weighed at the beginning and end of administration of the subject compounds. Food and water were provided ad libitum. The drug was administered orally in 0.5 ml of 2.5% Emulphor. Unless otherwise indicated, the compound was administered once per day for eight days. The tumor was measured the day after treatment ended with two dimensional measurements (width and length) of the tumor taken using Vernier calipers. Tumor weights were calculated from these measurements using the following formula:
(tumor weight in mg)=(width in mm)^2 ×(length in mm)/2
At least one control group of an equal number of mice was treated with the same volume of 2.5% Emulphor only. The percent inhibition was calculated by subtracting the ratio of the mean tumor size of the test group relative to the control group from 1 and multiplying the result by 100.
The results of administering some of the present compounds orally (unless otherwise indicated) to mice bearing a 6C3HED tumor are provided in the Table. In the Table, column 1 gives the example number corresponding to the preparation of the particular compound, column 2 provides the dose level, column 3 lists the percent inhibition of tumor growth, and column 4 gives the number of mice which died relative to the total number of animals in the group.

A further series has as its system CCRF-CEM cells. As to the kind of experiment: in vitro cytotoxicity against CCRF-CEM cells (50% inhibition of growth). The series is classed as cell-based, human. The settings on record: 72 h incubation; for IC50: Homo sapiens, CCRF-CEM. The procedure: The in vitro CCRF-CEM data reported in column 5 of the Table was obtained using CCRF-CEM cells, a human leukemia cell line, (Foley et al., Cancer, 1965, 18, 522) were grown as previously described (Grindey, et al., J. Mol. Pharmacol., 1979, 16, 601) both references incorporated herein by reference. Dose-response curves were generated for various compounds to determine the concentration required for 50% inhibition of growth (IC50). Cluster plates were prepared in duplicate with the compound at various concentrations. Test compounds were dissolved initially in DMSO at a concentration of 4 mg/mL and further diluted with solvent to the desired concentration. Cells in Roswell Park Memorial Institute 1640 media supplemented with 10% dialyzed fetal bovine serum, and 25 mM HEPES buffer were added to the well an a final concentration of 4.8×10^4 cells/well in a total volume of 2.0 mL. After 72 h of incubation (95% air, 5% CO2), cell numbers were determined on a ZBI Coulter counter. Cell number for indicated controls at the end of incubation was usually (4-6)×10^5 cells/well.

Setting [1] is: 150 mg/kg orally daily for eight days.
Where [2] appears, read: 300 mg/kg orally daily for eight days.

The IC50 is the concentration that gives 50% inhibition. Lower therefore signals greater potency.

With `Cc1cc(S(=O)(=O)NC(=O)Nc2ccc(Cl)cc2)cc(C)c1Cl` [Example 12, N-[[(4-Chlorophenyl)amino]carbonyl]-4-chloro-3,5-dimethylbenzenesulfonamide], the “Toxic/Total (number of mice which died during test period/total number of mice in test group)” value (shortened to “Toxic/Total”) in the series on 6C3HED lymphosarcoma (setting [1]) is on record as 0/10. In addition, the “Toxic/Total” value in the series on 6C3HED lymphosarcoma (setting [2]) is given as 1/10. Further, in the series on 6C3HED lymphosarcoma, the inhibition in vivo at 150 mg/kg was 44% and the inhibition in vivo at 300 mg/kg amounted to 84%. Also, in the series with CCRF-CEM cells, half-maximal inhibition (IC50) required 15 µg/mL (≈ 40.2 µM).
For the compound `Cc1cc(S(=O)(=O)NC(=O)Nc2ccc(Br)cc2)cc(C)c1C` [Example 2, N-[[(4-Bromomhenyl)amino]carbonyl]-3,4,5-trimethylbenzenesulfonamide], the “Toxic/Total” value in the series on 6C3HED lymphosarcoma (setting [1]) is recorded as 1/10; with 6C3HED lymphosarcoma (setting [2]), 8/10. The inhibition in vivo at 150 mg/kg in the series on 6C3HED lymphosarcoma is 99%. Also, the inhibition in vivo at 300 mg/kg with 6C3HED lymphosarcoma was found to be 99%. This compound also came in with an IC50 in the series with CCRF-CEM cells greater than 20 µg/mL.
Take `CN(C)c1c(Cl)cc(S(=O)(=O)NC(=O)Nc2ccc(Cl)cc2)cc1Cl` [Example 14, N-[[(4-Chlorophenyl)amino]carbonyl]-4-(N,N,dimethylamino)-3,5-dichlorobenzene-sulfonamide]: the “Toxic/Total” value with 6C3HED lymphosarcoma (setting [1]) is given as 1/10. The “Toxic/Total” value with 6C3HED lymphosarcoma (setting [2]) was 0/10. Moreover, in the series with 6C3HED lymphosarcoma, the inhibition in vivo at 150 mg/kg is 50% and the inhibition in vivo at 300 mg/kg worked out at 93%. The compound also came in with an IC50 in the series with CCRF-CEM cells of 17 µg/mL (≈ 40.2 µM).
The corresponding values for `COc1cc(S(=O)(=O)NC(=O)Nc2ccc(Cl)cc2)cc(OC)c1OC` [Example 16, N-[[(4-Chlorophenyl)amino]carbonyl]-3,4,5-trimethoxylbenzenesulfonamide] are 0/10, 0/10, 6%, 35% and greater than 20 µg/mL.
As for `Nc1c(Cl)cc(S(=O)(=O)NC(=O)Nc2ccc(Cl)cc2)cc1Cl` [Example 7, N,[[(4-Chlorophenyl)amino]carbonyl]-4-amino-3,5-dichlorobenzenesulfonamide], in the series on 6C3HED lymphosarcoma (setting [1]), the “% Tumor Inhibition” value is on record as 95% and the “Toxic/Total” value is 0/10. Besides, in the series on 6C3HED lymphosarcoma (setting [2]), the “% Tumor Inhibition” value is recorded as “Toxic” and the “Toxic/Total” value was 10/10. In addition, the “in vitro (CCRF-CEM) IC50” value with CCRF-CEM cells is greater than 20 µg/mL.
Regarding `CNc1c(Br)cc(S(=O)(=O)NC(=O)Nc2ccc(Cl)cc2)cc1Br` [Example 18, N-[[(4-Chlorophenyl)amino]carbonyl]-3,5-dibromo-4-(N-methylamino)benzenesulfonamide], the “Toxic/Total” value with 6C3HED lymphosarcoma (setting [1]) is recorded as 1/10. Further, in the series with 6C3HED lymphosarcoma (setting [2]), the “Toxic/Total” value is listed as 0/10. Besides, in the series with 6C3HED lymphosarcoma, the inhibition in vivo at 150 mg/kg is 26% and the inhibition in vivo at 300 mg/kg stood at 47%. Also, the IC50 with CCRF-CEM cells was 19.3 µg/mL (≈ 38.8 µM).
For `Cc1cc(S(=O)(=O)NC(=O)Nc2ccc(Cl)cc2)cc(C)c1C` [Example 1, N-[[(4-Chlorophenyl)amino]carbonyl]-3,4,5-trimethylbenzene sulfonamide], the “Toxic/Total” value in the series on 6C3HED lymphosarcoma (setting [1]) and in the series with 6C3HED lymphosarcoma (setting [2]) was 0/10 in each case. Further, the inhibition in vivo at 150 mg/kg with 6C3HED lymphosarcoma is 99%. Further, the inhibition in vivo at 300 mg/kg with 6C3HED lymphosarcoma was 100%. In the series on CCRF-CEM cells, this compound came in with an IC50 of 14.8 µg/mL (≈ 41.9 µM).
On to `Cc1cc(S(=O)(=O)NC(=O)Nc2ccc(Cl)c(Cl)c2)cc(C)c1C` [Example 4, N-[[(3,4-Dichlorophenyl)amino]carbonyl]-3,4,5-trimethylbenzenesulfonamide], for which, in the series with 6C3HED lymphosarcoma (setting [1]), the “Toxic/Total” value was 0/10. Also, in the series on 6C3HED lymphosarcoma (setting [2]), the “Toxic/Total” value is listed as 1/10. For the same compound, in the series on 6C3HED lymphosarcoma, the inhibition in vivo at 150 mg/kg is 38% and the inhibition in vivo at 300 mg/kg was 74%. Inhibition with CCRF-CEM cells was half-maximal at 13.5 µg/mL (≈ 34.9 µM) (IC50).
For the compound `COc1c(C)cc(S(=O)(=O)NC(=O)Nc2ccc(Cl)cc2)cc1C` [Example 15, N-[[(4-Chlorophenyl)amino]carbonyl]-3,5-dimethyl-4-methoxybenzesulfonamide], the “Toxic/Total” value in the series with 6C3HED lymphosarcoma (setting [1]) is recorded as 1/10. In addition, in the series with 6C3HED lymphosarcoma (setting [2]), the “Toxic/Total” value is 0/10. Further, in the series with 6C3HED lymphosarcoma, the inhibition in vivo at 150 mg/kg was determined as 55% and the inhibition in vivo at 300 mg/kg turned out to be 87%. The same compound yielded an IC50 with CCRF-CEM cells of 16.5 µg/mL (≈ 44.7 µM).
For `Cc1cc(S(=O)(=O)NC(=O)Nc2ccc(C(F)(F)F)cc2)cc(C)c1C` [Example 3, N-[[(4 -Trifluoromethylphenyl)amino]carbonyl]-3,4,5-trimethylbenzenesulfonamide] the same measures were 0/10, 4/10, 100%, 100% and greater than 20 µg/mL.
For `O=C(Nc1ccc(Cl)cc1)NS(=O)(=O)c1cc(Cl)c(Cl)c(Cl)c1` [Example 6, N-[[(4-Chlorophenyl)amino]carbonyl]-3,4,5-trichlorobenzene sulfonamide] the same measures were 0/10, 3/10, 99%, 99% and greater than 20 µg/mL.
